Source: PMC7060258 (Scientific Reports, 2020)
pKd: −log10 of the molar value. No end group written: not given here.

How the values were obtained:
trypsin = assay: SPR interaction with trypsin; type: binding; details: for SPR binding to trypsin (in words): peptide immobilized on CM4 chip; for ka, association rate constant / kd, dissociation rate constant: protease 1 nM to 5 μM; for pKd: read-out: KD, dissociation constant
Experimental: (§1) The interaction of the peptides with serine proteinases (trypsin, α-chymotrypsin, human neutrophil elastase, pancreatic kallikrein and cathepsin G) was studied using the surface plasmon resonance (SPR) method. The peptides were immobilized on a CM4 sensor chip. […] Kinetic parameters were calculated at 25 °C. Obtained data indicated the formation of tight complexes and eliminated non-specific binding (Table 2).
(§2) The study of the interaction of serine proteinases with rHCIQ2c1 and rHCIQ4c7 was performed on SPR biosensor Biacore 3000 (GE Healthcare, USA) running under the program “Biacore 3000 Control Software v.1.0”. The evaluation of data was carried out using “Biacore Evaluation v.4.1”. Peptides were covalent immobilized on carboxymethylated surface of the Biacore CM4 sensor chip (GE Healthcare, USA) activated by EDC/NHS (N-hydroxysuccinimide/1-ethyl-3-(3-dimethylaminopropyl)carbodiimide hydrochloride) mixture by the injection of peptide solution (100 µg/ml) in 10 mM sodium acetate (pH 5.5) during 10 min with flow rate 5 µl/min. Quantities of immobilized peptides were 970 RU (resonance units, 1 RU corresponds 1 pg peptide) for rHCIQ2c1 and 460 RU for rHCIQ4c7. In all of the experiments, the flow cell 1 (Fc1) without the immobilized polypeptides was considered as the reference cell for the correction of the signal responses. HBS (HEPES buffered saline-NaCl): 0.15 M NaCl, 0.01 M HEPES, pH 7.4 (cat. no. BR-1003-69, GE Healthcare, USA) was used as the running buffer for the SPR assays. Protease solutions at concentrations from 1 nM to 5 μM were passed through measuring and control biosensor cells at 25 °C during 5 min with a flow rate 5 µl/min. Further complex breakdown was recorded during at most 10 min. After each cycle of SPR measurement, the sensing surface was regenerated by the injection of 50 mM NaOH for 0.5 min at a flow rate of 50 μl/min. Changes in Gibbs free energy (ΔG) at 25 °C were calculated by the following equation:1 ΔG=RTlnKD, where KD is the dissociation constant. Changes in enthalpy (ΔH) and entropic term (−TΔS) were calculated from the linear equation:2 ΔG=ΔH−TΔS, using the liner approximation of temperature dependence of ΔG (Van’t Hoff diagram).

α-chymotrypsin = assay: SPR interaction with α-chymotrypsin; type: binding; details: for SPR binding to α-chymotrypsin (in words): peptide immobilized on CM4 chip
Experimental: as §1, §2

pancreatic kallikrein = assay: SPR interaction with pancreatic kallikrein; type: binding; details: for SPR binding to kallikrein (in words): peptide immobilized on CM4 chip
Experimental: as §1, §2

[1] = test system: human neutrophil elastase; assay: SPR interaction with neutrophil elastase; type: binding; details: for SPR binding to neutrophil elastase (in words): peptide immobilized on CM4 chip; for ka, association rate constant / kd, dissociation rate constant: protease 1 nM to 5 μM
Experimental: as §1, §2

cathepsin G = assay: SPR interaction with cathepsin G; type: binding; details: for SPR binding to cathepsin G (in words): peptide immobilized on CM4 chip
Experimental: as §1, §2

rKv1.1 = assay: Two-electrode voltage clamp, rKv1.1 in X. laevis oocytes; type: cell-based; details: 10 μM, 18–22 °C, n ≥ 3
Experimental: (§3) For the expression of the voltage-gated potassium channels (rKv1.1, rKv1.2, hKv1.3, rKv1.4, rKv1.5, rKv1.6, Shaker IR and hERG) in X. laevis oocytes, the linearized plasmids were transcribed using the T7 or SP6 mMESSAGE-mMACHINE transcription kit (Ambion, USA). The harvesting of stage V–VI oocytes from an anaesthetized female X. laevis frog was previously described. Oocytes were injected with 50 nl of cRNA at a concentration of 1 ng/nl using a micro-injector (Drummond Scientific, USA). The oocytes were incubated in a solution containing (in mM): NaCl, 96; KCl, 2; CaCl2, 1.8; MgCl2, 2; HEPES, 5 (pH 7.4), supplemented with 50 mg/l gentamycin sulfate.
(§4) Two-electrode voltage-clamp recordings were performed at room temperature (18–22 °C) using a Geneclamp 500 amplifier (Molecular Devices, USA) controlled by a pClamp data acquisition system (Axon Instruments, USA), as described in[47]. Whole cell currents from oocytes were recorded 1–4 days after injection. Bath solution composition was ND96 (in mM): NaCl, 96; KCl, 2; CaCl2, 1.8; MgCl2, 2 and HEPES, 5 (pH 7.4). Voltage and current electrodes were filled with 3 M KCl. The resistances of both electrodes were kept between 0.7 and 1.5 MΩ. […] All data were analysed using pClamp Clampfit 10.0 (Molecular Devices, Downingtown, PA, USA) and Origin 7.5 software (Originlab, Northampton, MA, USA).

rKv1.2 = assay: Two-electrode voltage clamp, rKv1.2 in X. laevis oocytes; type: cell-based; details: 10 μM, 18–22 °C, n ≥ 3
Experimental: as §3, §4

rKv1.6 = assay: Two-electrode voltage clamp, rKv1.6 in X. laevis oocytes; type: cell-based; details: 10 μM, 18–22 °C, n ≥ 3
Experimental: as §3, §4

Shaker IR = assay: Two-electrode voltage clamp, Shaker IR in X. laevis oocytes; type: cell-based, Drosophila; details: 10 μM, 18–22 °C, n ≥ 3
Experimental: as §3, §4

[2] = trypsin, SPR Biacore 3000, peptide immobilized on CM4 chip, HBS pH 7.4, 25 °C
[3] = α-chymotrypsin, SPR Biacore 3000, peptide immobilized on CM4 chip, HBS pH 7.4, 25 °C, protease 1 nM to 5 μM
[4] = kallikrein, SPR Biacore 3000, peptide immobilized on CM4 chip, HBS pH 7.4, 25 °C, protease 1 nM to 5 μM
[5] = neutrophil elastase, SPR Biacore 3000, peptide immobilized on CM4 chip, HBS pH 7.4, 25 °C
[6] = cathepsin G, SPR Biacore 3000, peptide immobilized on CM4 chip, HBS pH 7.4, 25 °C, protease 1 nM to 5 μM

Substance | SPR binding to trypsin (in words) (trypsin; SPR) | ka, association rate constant (trypsin; [2]) | kd, dissociation rate constant (trypsin; [2]) | pKd (trypsin; [2]) | SPR binding to α-chymotrypsin (in words) (α-chymotrypsin) | SPR binding to kallikrein (in words) (pancreatic kallikrein) | SPR binding to neutrophil elastase (in words) ([1]; SPR) | KA, association constant [1, 5] | ka, association rate constant [1, 5] | kd, dissociation rate constant [1, 5] | SPR binding to cathepsin G (in words) (cathepsin G) | Activity on Kv1.1 (rKv1.1) | Activity on Kv1.2 (rKv1.2) | Activity on Kv1.6 (rKv1.6) | Activity on Shaker IR (Shaker IR) | further results
rHCIQ2c1: recombinant Kunitz-peptide of Heteractis crispa, most prevalent isoform, mature peptide 58 aa, expressed in E. coli (IQGNICSEPKKVGRCRGSFPRFYFDSETGKCTPFIYGGCGGNGNNFETLHACRAICRA; ends and bridges not checked; cysteine pairing not given here) | specifically binds to all target proteinases | 20500 s/M | 0.00817 s⁻¹ | 9.60 | specifically binds to all target proteinases | specifically binds to all target proteinases | specifically binds to all target proteinases | 7.9e+06 M⁻¹ | 68000 s/M | 0.00861 s⁻¹ | specifically binds to all target proteinases | neither 10 μM of rHCIQ2c1 nor rHCIQ4c7 exerted any activity on the Kv channels | neither 10 μM of rHCIQ2c1 nor rHCIQ4c7 exerted any activity on the Kv channels | neither 10 μM of rHCIQ2c1 nor rHCIQ4c7 exerted any activity on the Kv channels | neither 10 μM of rHCIQ2c1 nor rHCIQ4c7 exerted any activity on the Kv channels | KA, association constant (α-chymotrypsin; α-chymotrypsin, SPR Biacore 3000, peptide immobilized on CM4 chip, HBS pH 7.4, 25 °C): 1.03e+07 M⁻¹; ka, association rate constant (α-chymotrypsin; [3]): 76900 s/M; kd, dissociation rate constant (α-chymotrypsin; [3]): 0.00749 s⁻¹; pKd (α-chymotrypsin; α-chymotrypsin, SPR Biacore 3000, peptide immobilized on CM4 chip, HBS pH 7.4, 25 °C, read-out: KD, dissociation constant): 7.01; KA, association constant (pancreatic kallikrein; kallikrein, SPR Biacore 3000, peptide immobilized on CM4 chip, HBS pH 7.4, 25 °C): 2.04e+06 M⁻¹; ka, association rate constant (pancreatic kallikrein; [4]): 49400 s/M; kd, dissociation rate constant (pancreatic kallikrein; [4]): 0.00379 s⁻¹; KA, association constant (cathepsin G; cathepsin G, SPR Biacore 3000, peptide immobilized on CM4 chip, HBS pH 7.4, 25 °C): 3.58e+09 M⁻¹; ka, association rate constant (cathepsin G; [6]): 1.29e+06 s/M; kd, dissociation rate constant (cathepsin G; [6]): 0.000359 s⁻¹; pKd (cathepsin G; cathepsin G, SPR Biacore 3000, peptide immobilized on CM4 chip, HBS pH 7.4, 25 °C, read-out: KD, dissociation constant): 9.55
rHCIQ4c7: recombinant Kunitz-peptide of Heteractis crispa, isoform with the rare substitution Gly17Glu | bounds to trypsin and elastase only | 22500 s/M | 0.00466 s⁻¹ | 6.68 | bounds to trypsin and elastase only | bounds to trypsin and elastase only | bounds to trypsin and elastase only | 1.05e+06 M⁻¹ | 11900 s/M | 0.0114 s⁻¹ | bounds to trypsin and elastase only | neither 10 μM of rHCIQ2c1 nor rHCIQ4c7 exerted any activity on the Kv channels | neither 10 μM of rHCIQ2c1 nor rHCIQ4c7 exerted any activity on the Kv channels | neither 10 μM of rHCIQ2c1 nor rHCIQ4c7 exerted any activity on the Kv channels | neither 10 μM of rHCIQ2c1 nor rHCIQ4c7 exerted any activity on the Kv channels | KD with trypsin relative to rHCIQ2c1 (trypsin; SPR, 25 °C): higher by three orders than for rHCIQ2c1; KA, association constant (trypsin; [2]): 4.83e+06 M⁻¹; KD with elastase relative to rHCIQ2c1 ([1]; SPR, 25 °C): binding with elastase differed insignificantly; pKd ([1]; neutrophil elastase, SPR Biacore 3000, peptide immobilized on CM4 chip, HBS pH 7.4, 25 °C, read-out: KD, dissociation constant): 6.02
